# Measured values taken from patent US12358904B2, “Inhibitors of TYK2” (Atomwise Inc., priority 2023, dated 2025).
# pIC50: −log10 of the molar value.
# How the values were obtained:
# IL-12/pSTAT4 = experiment: IL-12 induced pSTAT4 assay in NK-92 cells; type: cell-based; settings: Homo sapiens, NK92, IL-12 stimulation, read-out: Cellular potency (IL-12/pSTAT4)
# Description: The following example describes the IL-12 induced pSTAT4 assay used to determine the cellular potency (IL-12/pSTAT4) of the TYK2 inhibitors.
# NK-92 cells (human natural killer lymphoma cell line) were cultured in MEM α, nucleosides (Life Technologies, 22571020) 12.5% heat inactivated FBS (Dominique Dutscher, S1810), 12.5% heat inactivated Horse serum (Life Technologies, 26050088) and 1% Penicillin-Streptomycin (Life Technologies, 15140122), 5 ng/mL human IL-2 (R&D systems, 202-II/CF), 0.2 mM inositol (Sigma, PHR1351 lot LRAC4118), 0.1 mM β-mercaptoethanol (Life Technologies, 31350010), and 0.02 mM folic acid (Sigma, F8758).
# NK-92 cells were starved overnight in starvation medium (Opti-MEM (ThermoFisher, 11058-021), 10% charcoal stripped FBS (ThermoFisher 12676-029), and 1% Penicillin (100U/ml)-Streptomycin (100 μg/ml) (ThermoFisher, ref 15140122)), then plated in a 96-well tissue culture plate (20K cells/well) prior to pre-incubation with test compounds (Final Concentration [nM] 1000 to 0.05) for 30 minutes at 37° C. Cells were stimulated with IL-12 (Final Concentration l0 ng/ml) for 30 minutes at 37° C., and terminated by addition of lysis buffer (MSD K150PAD-2). pSTAT4 (Tyr693) was detected using the Mesa Scale Discovery platform (MSD K150PAD-2), according to manufacturer's instruction. Briefly, cell lysates were added to pre-blocked plates and incubated for 1 hour at room temperature. Plates were washed and incubated with detection antibody for 1 hour at room temperature. Plates were washed and Read Buffer was added prior to measurement on the MSD (1300 MSD Quickplex SQ 120).
# TYK2-JH2 = biological target: T1, TYK2-JH2 (Homo sapiens, UniProt P29597); experiment: TYK2-JH2 HTRF binding assay (ligand efficiency); settings: calculated from IC50 of the TYK-JH2 binding assay (Equation 1)
# T1 construct: TYK JH2 enzyme mix (ChemPartnec CP20210818A-BV); purchased ChemPartner CP20210818A-BV
# Description: The following example describes the TYK2-JH2 HTRF binding assay used to determine the ligand efficiency of the TYK2 inhibitors.
# To calculate ligand efficiency, Equation 1 is applied:
# [formula] in which IC50 comes from the binding assay used to determine compound potency.
# TYK JH2 enzyme mix (ChemPartnec CP20210818A-BV), tracer (ChemPartnec CP-0029472-051) and mAb Anti-6HIS Tb cryptate Gold (Cisbio: Cat No. 61H12TLA) mix were prepared in assay buffer (10 mM MgCl2, 20 mM HEPES pH 7.5, 0.01% Triton X-100, 1 mM DTT). Compounds diluted in DMSO (Final Concentrations 0.1 to 0.000005 [μM]) and enzyme mix (0.5 nM Final Concentration) were added to 384 well plates, briefly centrifuged and incubated at room temperature for 10 minutes. After incubation, tracer mix (Tracer-35 nM final concentration); (Mab Anti-6HIS Tb cryptate Gold-0.5× final)) was added, briefly centrifuged then incubate at room temperature 60 minutes. After incubation, plates were read by Envision TR-FRET (Ex340/Em495/520) protocol (PerkinElmer-Envision 2104 multilabel plate reader).
# T1 sequence (P29597 589-875 limits assumed): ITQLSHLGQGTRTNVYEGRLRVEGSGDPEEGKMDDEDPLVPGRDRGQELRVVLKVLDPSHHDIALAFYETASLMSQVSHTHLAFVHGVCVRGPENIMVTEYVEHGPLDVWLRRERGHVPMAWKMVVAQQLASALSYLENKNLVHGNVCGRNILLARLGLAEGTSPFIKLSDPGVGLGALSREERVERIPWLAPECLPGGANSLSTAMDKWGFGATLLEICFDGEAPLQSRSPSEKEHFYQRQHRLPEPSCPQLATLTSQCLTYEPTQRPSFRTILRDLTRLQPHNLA
SMILES,pIC50 (IL-12/pSTAT4),Ligand Efficiency (TYK2-JH2)
"CC(c1ccc(Nc2cc(Nc3ncc(C4COC4)cc3S(C)(=O)=O)ncn2)nc1)N1CC2(COC2)C1 (centres unmarked) [Compound 78, N^4-(5-(1-(2-oxa-6-azaspiro[3.3]heptan-6-yl)ethyl)175yridine-2-yl)-N^6-(3-(methylsulfonyl)-5-(oxetan-3-yl)175yridine-2-yl)pyrimidine-4,6-diamine]",< 6.00,† (†: <0.37)
"C[C@@H](c1ccc(Nc2cc(Nc3ncc(Cl)cc3S(C)(=O)=O)ncn2)nc1)N1CC2(COC2)C1 [Compound 14, (S)—N^4-(5-(1-(2-oxa-6-azaspiro[3.3]heptan-6-yl)ethyl) 95yridine-2-yl)-N^6-(5-chloro-3-(methylsulfonyl)95yridine-2-yl)pyrimidine-4,6-diamine]",> 7.00,††† (†††: >0.39)
"Cn1ccc(Nc2cc(Nc3ccccc3C(N)=O)ncn2)n1 [Compound 67, 2-((6-((1-methyl-1H-pyrazol-3-yl)amino)pyrimidin-4-yl)amino)benzamide]",< 6.00,††† (†††: >0.39)
"Cc1ccnc(Nc2cc(Nc3ccccc3P(C)(C)=O)ncn2)c1 [Compound 63, N^4-(2-(dimethylphosphoryl)phenyl)-N^6-(4-methylpyridin-2-yl) pyrimidine-4,6-diamine]",6.00 to 7.00,††† (†††: >0.39)
"CS(=O)(=O)c1cccnc1Nc1cc(Nc2ccc(N3CCN(C4CC4)CC3)cn2)ncn1 [Compound 7, N^4-(5-(4-cyclopropylpipeiazin-1-yl) 83yridine-2-yl)-N^6-(3-(methylsulfonyl)83yridine-2-yl)pyrimidine-4,6-diamine]",> 7.00,††† (†††: >0.39)
"CC1(Nc2cnc(Nc3cc(Nc4ncccc4S(C)(=O)=O)ncn3)cn2)COC1 [Compound 74, N^4-(5-(3-methyloxetan-3-ylamino)pyrazin-2-yl)-N^6-(3-(methylsulfonyl)167yridine-2-yl)pyrimidine-4,6-diamine]",6.00 to 7.00,††† (†††: >0.39)
"C[C@@H](c1ccc(Nc2cc(Nc3ncccc3S(C)(=O)=O)ncn2)nc1)N1CC2(CCOCC2)C1 [Compound 31, I-N^4-(5-(1-(7-oxa-2-azaspiro[3.5]nonan-2-yl)ethyl)pyridine-2-yl)-N^6-(3-(methylsulfonyl)114yridine-2-yl)pyrimidine-4,6-diamine]",> 7.00,†† (††: 0.37-0.39)
"CC(c1ccc(Nc2cc(Nc3ncccc3S(C)(=O)=O)ncn2)nc1)N1CC2(CC(C(F)F)C2)C1 (centres unmarked) [Compound 34, N^4-(5-(1-(6-(difluoromethyl)-2-azaspiro[3.3]heptan-2-yl)ethyl) 120yridine-2-yl)-N^6-(3-(methylsulfonyl)120yridine-2-yl)pyrimidine-4,6-diamine]",> 7.00,†† (††: 0.37-0.39)
"C[C@H]1COCCN1c1ccc(Nc2cc(Nc3ccccc3S(C)(=O)=O)ncn2)nc1 [Compound 54, (S)—N^4-(5-(3-methylmorpholino)144yridine-2-yl)-N^6-(2-(methylsulfonyl)phenyl)pyrimidine-4,6-diamine]",< 6.00,† (†: <0.37)
"Cc1cccnc1Nc1cc(Nc2ccccc2C(N)=O)ncn1 [Compound 68, 2-((6-((3-methylpyridin-2-yl)amino)pyrimidin-4-yl)amino) benzamide]",< 6.00,††† (†††: >0.39)
"C[C@H](c1ccc(Nc2cc(Nc3ncccc3S(C)(=O)=O)ncn2)nc1)N1CCC2(CCOCC2)C1 [Compound 30, I-N^4-(5-(1-(8-oxa-2-azaspiro[4.5]decan-2-yl)ethyl)112yridine-2-yl)-N^6-(3-(methylsulfonyl)112yridine-2-yl)pyrimidine-4,6-diamine]",> 7.00,†† (††: 0.37-0.39)
COc1cc(Nc2cc(Nc3ncccc3S(C)(=O)=O)ncn2)ncc1NC1(C)COC1 [Compound 62],< 6.00,†† (††: 0.37-0.39)
"COc1ccnc(Nc2cc(Nc3cccc(C)n3)ncn2)c1S(C)(=O)=O [Compound 65, N^4-(4-methoxy-3-(methylsulfonyl)155yridine-2-yl)-N^6-(6-methylpyridin-2-yl)pyrimidine-4,6-diamine]",< 6.00,††† (†††: >0.39)
"CS(=O)(=O)c1ccccc1Nc1cc(NC(=O)C2CC2)ncn1 [Compound 69, N^4-(cyclopropylcarbonyl)-N^6-(2-(methylsulfonyl)phenyl)pyrimidine-4,6-diamine]",< 6.00,††† (†††: >0.39)
"Cc1cccc(Nc2cc(Nc3ccncc3S(C)(=O)=O)ncn2)n1 [Compound 60, N^4-(6-methylpyridin-2-yl)-N^6-(3-(methylsulfonyl)151yridine-4-yl) pyrimidine-4,6-diamine]",< 6.00,††† (†††: >0.39)
"CS(=O)(=O)c1ccccc1Nc1cc(Nc2ccc(N3CCOCC3)cn2)ncn1 [Compound 42, N^4-(2-(methylsulfonyl)phenyl)-N^6-(5-morpholinopyridin-2-yl) pyrimidine-4,6-diamine]",6.00 to 7.00,††† (†††: >0.39)
"Cc1cccc(Nc2cc(Nc3ncccc3C(N)=O)ncn2)n1 [Compound 52, 2-((6-((6-methylpyridin-2-yl)amino)pyrimidin-4-yl)amino) nicotinamide]",6.00 to 7.00,††† (†††: >0.39)
"CS(=O)(=O)c1cccnc1Nc1cc(Nc2ccc(NC3CC(F)(F)C3)cn2)ncn1 [Compound 37, N^4-(5-(3,3-difluorocyclobutylamino)124yridine-2-yl)-N^6-(3-(methylsulfonyl)124yridine-2-yl)pyrimidine-4,6-diamine]",> 7.00,††† (†††: >0.39)
"CS(=O)(=O)c1cccnc1Nc1cc(Nc2ncccc2F)ncn1 [Compound 64, N^4-(3-fluoropyridin-2-yl)-N^6-(3-(methylsulfonyl)154yridine-2-yl) pyrimidine-4,6-diamine]",< 6.00,††† (†††: >0.39)
"CS(=O)(=O)c1ccccc1Nc1cc(Nc2ccc(NC3COC3)cn2)ncn1 [Compound 80, N^4-(2-(methylsulfonyl)phenyl)-N^6-(5-(oxetan-3-ylamino)177yridine-2-yl) pyrimidine-4,6-diamine]",< 6.00,† (†: <0.37)
"Cc1cccc(Nc2cc(Nc3ncccc3CS(C)(=O)=O)ncn2)n1 [Compound 71, N^4-(6-methylpyridin-2-yl)-N^6-(3-((methylsulfonyl)methyl) 162yridine-2-yl)pyrimidine-4,6-diamine]",< 6.00,††† (†††: >0.39)
"Cc1cccc(Nc2cc(Nc3ccccc3S(C)(=O)=O)nc(N)n2)n1 [Compound 57, N^4-(6-methylpyridin-2-yl)-N^6-(2-(methylsulfonyl)phenyl)pyrimidine-2,4,6-triamine]",–,††† (†††: >0.39)
"Cc1cccc(Nc2cc(Nc3ccccc3S(C)(=O)=O)nc(C)n2)n1 [Compound 56, 2-methyl-N^4-(6-methylpyridin-2-yl)-N^6-(2-(methylsulfonyl)phenyl) pyrimidine-4,6-diamine]",–,† (†: <0.37)
"CC1(Nc2ccc(Nc3cc(Nc4ncccc4S(C)(=N)=O)ncn3)nc2)COC1 (centres unmarked) [Compound 73, N^4-(5-((3-methyloxetan-3-yl)amino)166yridine-2-yl)-N^6-(3-(S-methylsulfonimidoyl)166yridine-2-yl)pyrimidine-4,6-diamine]",–,††† (†††: >0.39)
"CC(c1ccc(Nc2ncnc(Nc3ncccc3S(C)(=O)=O)c2F)nc1)N1CC2(COC2)C1 (centres unmarked) [Compound 75, N^4-(5-(1-(2-oxa-6-azaspiro[3.3]heptan-6-yl)ethyl)168yridine-2-yl)-5-fluoro-N^6-(3-(methylsulfonyl)168yridine-2-yl)pyrimidine-4,6-diamine]",–,† (†: <0.37)
"Cc1cccc(Nc2cc(Nc3ccccc3C(N)=O)nc(N)n2)n1 [Compound 55, 2-((2-amino-6-((6-methylpyridin-2-yl)amino)pyrimidin-4-yl)amino)benzamide]",–,†† (††: 0.37-0.39)
